How the values were obtained:
[1] = tested on: spleen and the lymph nodes; test: Expansion of spleen and lymph tissues (inguinal and mesenteric lymph nodes); type: in vivo, mice; conditions: compared to the control, FIG. 8
Method: In the examples of the present invention, efficacies of the composition of the present invention were investigated by establishing animal models CIA or SIA with animal diseases similar to rheumatoid arthritis of the human body. Specifically, 100 μl of 250 μg or 500 μg of the compound YKL-05-099 (CAS No.: 1936529-65-5) shown in FIG. 1 was intraperitoneally (i.p.) administered to a mouse weighed 25 g (that is, 10 mg or 20 mg per 1 kg) once a day. […] Disease-free mice without administration of antigens were used as a negative control, and the compared results are shown in FIG. 8.

CIA mice [2] = test: Bone loss around paw joint (micro CT) in CIA mice; type: in vivo; conditions: bone amount in the paw joint, FIG. 9
Method: FIG. 9 is photographs taken through micro CT and graphs showing effects of inhibiting reduction of bone loss around the joints in the embodiments of the present invention.
(§1) In the examples of the present invention, efficacies of the composition of the present invention were investigated by establishing animal models CIA or SIA with animal diseases similar to rheumatoid arthritis of the human body. Specifically, 100 μl of 250 μg or 500 μg of the compound YKL-05-099 (CAS No.: 1936529-65-5) shown in FIG. 1 was intraperitoneally (i.p.) administered to a mouse weighed 25 g (that is, 10 mg or 20 mg per 1 kg) once a day.

CIA mice [3] = test: Edema of paws and joints / paw thickness in CIA mice; type: in vivo
Method: In the present invention, “CIA” is used for an animal model suffering from rheumatoid arthritis and means “collagen-induced arthritis.”
as §1
(§2) After i.p. administration of YKL-05-099 in an amount of 10 mg/kg or 20 mg/kg to mice having rheumatoid arthritis once a day, improvement of edema in the paws was investigated. For definite measurement and comparison, the most swollen portion of the paw was measured in multiple times, and collected numerical values of paw thickness were recorded and compared. Disease-free mice without administration of antigens were used as a negative control.
(§3) FIG. 4 illustrates measured results of the paw thickness of CIA mice while FIG. 5 illustrates measured results of the paw thickness of SIA mice, respectively.

[4] = tested on: TNF-α, IL-6, IFN-γ, IL-17a; test: Inflammatory cytokines in peripheral blood by ELISA, CIA mice; type: in vivo; conditions: ELISA at time of sacrifice, FIG. 10
Method: as §1
(§4) After administering YKL-05-099 to the rheumatoid arthritis animal model, essential inflammatory cytokines to induce rheumatoid arthritis such as TNF-α and IL-6, the representative immunoreactive cytokine of TH1 such as IFN-γ, and the representative immunoreactive cytokine of TH17 such as 1L-17a within peripheral blood at a time of sacrificing the mouse were subjected to analysis through enzyme linked immunosorbent assay (ELISA). Specifically, cytokine analysis was implemented using ELISA kit products according to instructions of Invitrogen Co., wherein the used product serial numbers are anti-IFN-γ (88-7314), anti-TNF-α (88-7324), anti-IL-17a (88-7371) and anti-IL-6 (88-7064). Disease-free mice without administration of antigens were used as a negative control. […] FIG. 10 illustrates measured results of cytokines in CIA mice while FIG. 11 illustrates measured results of cytokines in SIA mice, respectively.

SIA mice [5] = test: Edema of paws and joints / paw thickness in SIA mice; type: in vivo
Method: In the present invention, “SIA” is used for an animal model suffering from rheumatoid arthritis and means “serum transfer arthritis.”
as §1, §2, §3

[6] = tested on: CD11b+ F4/80+ cells (macrophage cells); test: Macrophage cell level in spleen cells of CIA mice by flow cytometry; type: in vivo; conditions: for ratio of CD11b+ F4/80+ cells as a marker for macrophage cells: spleen live cells, CIA+Veh 1.854±0.41%, sham 0.355±0.08%
Method: In order to confirm mitigation effects of increase in immune active macrophage cells in the spleen, after i.p. administration of YKL-05-099 in an amount of 10 mg/kg or 20 mg/kg to the rheumatoid arthritis model CIA mice once a day, spleen cells were isolated at a time of sacrificing the mice to investigate macrophage cell levels. FIGS. 13A and 13B illustrate the above results of investigating macrophage cell levels. Immune cell assay was performed through flow cytometry, and the experiment was implemented according to product instructions of Invitrogen Co.
Specifically, the spleen cells were isolated to prepare 1×10^6 cells/100 μl of single cells, followed by staining live/dead cells using fixable viability dye (Invitrogen, eFluor™780, 65-0865-14), and then blocking the same using anti-CD16/32 (Invitrogen, 14-0161). Following this, the above product was stained using anti-CD11b (Invitrogen, M1/70) and anti-F4/80 (Invitrogen, BM8). The stained cells were subjected to measurement of a ratio of CD11b^+ F4/80^+ cells as a marker for macrophage cells in live cells isolated through flow cytometry.
From the result of measuring a ratio of CD11b^+ F4/80^+ cells as a marker for macrophage cells, it was confirmed that sham is 0.355±0.08%, CIA+Veh is 1.854±0.41%, CIA+YKL-05-099 10 mg/kg is 1.043±0.30%, CIA+YKL-05-099 20 mg/kg is 0.975±0.12%, respectively. Using unpaid parametric Welch's corrected t-test (two-tailed), p-value was indicated. With regard to statistically significant levels, p-value is 0.05 or less, wherein significance was represented by *p<0.05, **p<0.01 and ***p<0.001. CIA+Veh vs sham p-value is 0.0009, CIA+YKL-05-099 20 mg/kg vs CIA+Veh p-value is 0.0057, CIA+YKL-05-099 10 mg/kg vs sham p-value is 0.0019, CIA+YKL-05-099 20 mg/kg vs sham p-value is 0.0002, and CIA+YKL-05-099 10 mg/kg vs CIA+Veh p-value is 0.0076.

[7] = tested on: TNF-α, IL-6, IFN-γ, IL-17a; test: Inflammatory cytokines in peripheral blood by ELISA, SIA mice; type: in vivo; conditions: ELISA at time of sacrifice, FIG. 11
Method: as §1, §4

CIA mice [8] = test: Rheumatoid arthritis clinical score in CIA mice; type: in vivo; conditions: 10 mg/kg or 20 mg/kg, score 0-4 per paw, four paws combined, FIG. 6
Method: as §1
(§5) With regard to rheumatoid arthritis animal models CIA and SIA, respectively, rheumatoid arthritis clinical score was investigated. Disease-free mice without administration of antigen were used as a negative control. The clinical scores were determined depending on significance as follows: 0 (no symptom); 1 (slight edema on the soles or toes); 2 (significant edema throughout the soles and toes); 3 (significant to serious edema throughout the paw); 4 (serious edema and distortion throughout the paw), and then, the results for four paws were combined. FIG. 6 illustrates the results for CIA mice, and FIG. 7 illustrates the results for SIA mice, respectively.

CD4+ Foxp3+ cells (Treg) = test: Treg cell level in spleen cells of CIA mice by flow cytometry; type: in vivo; conditions: for ratio of CD4+ Foxp3+ cells as a marker for Treg: spleen live cells, CIA+Veh 12.24±0.34%, sham 10.725±0.53%
Method: After i.p. administration of YKL-05-099 in an amount of 10 mg/kg or 20 mg/kg to the rheumatoid arthritis model CIA mice once a day, spleen cells were isolated at a time of sacrificing the mice to investigate Treg cell levels. Immune cell assay was performed through flow cytometry, and the experiment was implemented according to product instructions of Invitrogen Co. Specifically, the spleen cells were isolated to prepare 1×10^6 cells/100 μl of single cells, followed by staining live/dead cells using fixable viability dye (Invitrogen, eFluor™780, 65-0865-14), and then blocking the same using anti-CD16/32 (Invitrogen, 14-0161). Following this, the above product was stained using anti-CD4 (Invitrogen, RM4-5, mice) and anti-Foxp3 (Invitrogen, FJK-16s, mice). The stained cells were subjected to measurement of a ratio of CD4^+ Foxp3^+ cells as a marker for Treg in live cells isolated through flow cytometry.
FIGS. 12A and 12B illustrate the above measured results. From the results of measuring a ratio of CD4^+ Foxp3^+ cells as a marker for Treg, it was confirmed that sham (disease-free mice) is 10.725±0.53%, CIA+Veh is 12.24±0.34%, CIA+YKL-05-099 10 mg/kg is 14.2±1.28%, CIA+YKL-05-099 20 mg/kg is 14.98±1.16%, respectively. Using unpaid parametric Welch's corrected t-test (two-tailed), p-value was indicated. With regard to statistically significant levels, p-value is 0.05 or less, wherein significance was represented by *p<0.05, **p<0.01 and ***p<0.001. Sham vs CIA+Veh p-value is 0.0045, CIA+YKL-05-099 10 mg/kg vs CIA+Veh p-value is 0.0119, CIA+YKL-05-099 20 mg/kg vs CIA+Veh p-value is 0.0046, CIA+YKL-05-099 10 mg/kg vs sham p-value is 0.0005, and CIA_YKL-05-099 20 mg/kg vs sham p-value is 0.0004.

SIA mice [9] = test: Rheumatoid arthritis clinical score in SIA mice; type: in vivo; conditions: 10 mg/kg or 20 mg/kg, score 0-4 per paw, four paws combined, FIG. 7
Method: as §1, §5

COc1ccc(N2C(=O)N(c3c(C)cccc3Cl)Cc3cnc(Nc4ccc(C5CCN(C)CC5)cc4OC)nc32)nc1 [YKL-05-099]
expansion of the spleen and the lymph nodes [1]: greatly suppressed | bone loss in paw joint (CIA mice [2]): significantly inhibited | edema of the paws and around the joints (visually observed) (CIA mice [3]; 10 mg/kg or 20 mg/kg i.p. once a day, compared to the control, FIG. 2): remarkably improved | paw thickness (CIA mice [3]; vs vehicle administered group, FIG. 4): remarkably thinner | inflammatory cytokines (TNF-α, IL-6, IFN-γ, IL-17a) within peripheral blood [4]: greatly suppressed | edema of the paws and around the joints (visually observed) (SIA mice [5]; 10 mg/kg or 20 mg/kg i.p. once a day, compared to the control, FIG. 3): remarkably improved | paw thickness (SIA mice [5]; vs vehicle administered group, FIG. 5): remarkably thinner | ratio of macrophage cells compared to CIA+Veh ([6]; 10 mg/kg and 20 mg/kg): statistically significant decrease | ratio of CD11b+ F4/80+ cells as a marker for macrophage cells ([6]; 10 mg/kg i.p. once a day, p vs Veh 0.0076): 1.043±0.30% | ratio of CD11b+ F4/80+ cells as a marker for macrophage cells ([6]; 20 mg/kg i.p. once a day, p vs Veh 0.0057): 0.975±0.12% | inflammatory cytokines (TNF-α, IL-6, IFN-γ, IL-17a) within peripheral blood [7]: greatly suppressed | rheumatoid arthritis clinical scores (CIA mice [8]): significantly reduced | ratio of Treg cells compared to CIA+Veh (CD4+ Foxp3+ cells (Treg); 10 mg/kg and 20 mg/kg): statistically significant increase | ratio of CD4+ Foxp3+ cells as a marker for Treg (CD4+ Foxp3+ cells (Treg); 10 mg/kg i.p. once a day, p vs Veh 0.0119): 14.2±1.28% | ratio of CD4+ Foxp3+ cells as a marker for Treg (CD4+ Foxp3+ cells (Treg); 20 mg/kg i.p. once a day, p vs Veh 0.0046): 14.98±1.16% | rheumatoid arthritis clinical scores (SIA mice [9]): significantly reduced

Reference: patent US12642801B2, “Pharmaceutical composition for preventing or treating rheumatoid arthritis and health functional food” (SEOUL NATIONAL UNIVERSITY R&DB FOUNDATION, priority 2021, dated 2026)
